The values that follow come from US20140142180A1, “METHODS OF TREATING TUMORS HAVING ELEVATED MCT1 EXPRESSION” (Whitehead Institute for Biomedical Research, priority 2012, published 2014).

In one test the test system is T47D cells. Put plainly: Cell survival assay, T47D. It counts as cell-based, human. The conditions noted are these: low MCT1 level. The procedure:
Cell lines (5,000-20,000) were seeded in 96-well plates and treated with indicated amounts of 3-BrPA. After 3 days of treatment, CellTiter-Glo (Promega) and/or CyQuant (Invitrogen) were used to measure survival percentage for each concentration compared to untreated cells. FACS analysis with Annexin V and 7AAD staining was performed according to manufacturer's manual (BD Pharmingen).
15 cell lines (BT-474, BT-549, CAK1-1, CAL-51, HCC-70, HS578T, JURKAT, MDA-MB-157, MDA-MB-231, MDA-MB-453, MDA-MB-468, PC-3, SK-BR-3, T47D, ZR-75-1) were treated with 3-BrPA (0-300 μM). After 3 days, cell viability was quantified via CellTiter-Glo assay and an IC50 from the resulting dose-response curve was interpolated using a nonlinear regression model. Transcriptome-wide normalized mRNA levels from gene expression profiling experiments performed on the Affymetrix Human Genome U133 Plus 2.0 chip were obtained from the CCLE for all 15 cell lines. The mRNA expression pattern across all 15 samples for each of the genes was then correlated with the IC50 values. Similar correlation analysis was performed using OCR/ECAR values for each cell line.

Test [1] relates to AMPK and ACC phosphorylation. Put plainly: Immunoblot of AMPK and ACC phosphorylation, MCT1-null KBM7 cells. The note with it: 50 μM 3-BrPA. Type of test: cell-based, human. On the procedure: Briefly, cells were rinsed twice in ice-cold PBS and harvested in a standard lysis buffer containing 50 mM Hepes, pH 7.4, 40 mM NaCl, 2 mM EDTA, 1.5 mM orthovanadate, 50 mM NaF, 10 mM pyrophosphate, 10 mM glycerophosphate, protease inhibitors (Roche) and 1% Triton-X-100. Proteins from total lysates were resolved by 8-12% SDS-PAGE, and analyzed by immunoblotting as described using anti-MCT1 (Millipore; Ab3540), anti-RPS6 and anti-raptor antibodies (1:1000)^50. For quantitation, ImageJ software was used and the signals were normalized using an equal loading control (RPS6/Raptor). Immunohistochemistry was performed on formalin-fixed paraffin embedded sections using a boiling Dako antigen retrieval method (Dako). A 1:500 dilution of the anti-MCT1 antibody was used for staining.

In the case of `O=C(O)C(=O)CBr` [3-BrPA, 3-bromopyruvic acid], in the test on T47D cells, the “sensitivity to 3-BrPA” value was “resistant”. In test [1], the “AMPK and ACC phosphorylation, markers of energy stress” value is on record as “did not affect”.
